Test results: patent US20240207336A1, “PURIFIED PS[…] […] ACIDIFIED ACETONE” (PSILO SCIENTIFIC LTD, priority 2021, published 2024)

Assay: oxidation (decay) of psilocin over time, applicant's own data

## CN(C)CCc1c[nH]c2cccc(O)c12 [psilocin]
After 5 hours, moist and/or high light environment
  decay of psilocin (oxidation): ~25%
At 20 hours when shielded from light
  decay of psilocin (oxidation): 40-60%
Within 30 minutes, moist and/or high light environment
  decay of psilocin (oxidation): about 10%
